Assay results reported in patent US4398023A, “β-1,3-Glucanpolyol, process for preparation thereof, and utilization thereof” (Meito Sangyo Kabushiki Kaisha, priority 1979, dated 1983).
One block for each substance: values may come before it.

Tests used:
[1] = Intrinsic viscosity [.eta.]; type: physicochemical; settings: 25° C., aqueous solution; concentration in g/100 ml
Procedure: The intrinsic viscosity, as used in the present invention, is [.eta.] defined by the following equation. [formula] wherein .eta.sp =(.eta.-.eta.o)/.eta.o =/.eta.o -1 in which .eta. is the viscosity (at 25° C. in aqueous solution) of the solution and .eta.o is the viscosity of the solvent; and C is the concentration in g/100 ml.

CCM-adenocarcinoma = assay: Antitumor activity test using CCM-adenocarcinoma in ICR-JCL mice; type: in vivo; settings: intraperitoneal, once a day for 10 days, fifth week
Procedure: (§1) The ascites cells of Sarcoma 180 were inoculated peritoneally in ICR-JCL mice having a body weight of about 23 g. […] Starting 24 hours after the transplantation, the glucanpolyol of this invention was intraperitoneally administered once a day for 10 days. In the fifth week, the tumor was enucleated and its weight was compared with that in non-treated groups. The tumor inhibition ratio was calculated, and the number of tumors which completely regressed was observed.
(§2) The tumor inhibition ratio was calculated in accordance with the following equation. [formula] wherein C is the average weight of tumor in non-treated groups (10 mice per group),
(§3) T is the average weight of tumor in treated groups (10 mice per group).
(8) An antitumor activity test using CCM-adenocarcinoma in ICR-JCL mice
Six million CCM-adenocarcinoma cells were transplanted into the subcutaneous portion of the right inguinal part of ICR-JCL mice having a body weight of about 23 g, and then the same operation as in (1) above was performed.

[2] = tested on: NTF-reticulum cell sarcoma; assay: Antitumor activity test using NTF-reticulum cell sarcoma in ICR-JCL mice; type: in vivo; settings: intraperitoneal, once a day for 10 days, fifth week
Procedure: as §1, §2, §3
(9) An antitumor activity test using NTF-reticulum cell sarcoma in ICR-JCL mice
Six million NFT-reticulum cell sarcoma cells were transplanted into the subcutaneous portion of the right inguinal part of ICR-JCL mice having a body weight of about 23 g, and then, the same operation as in (1) above was performed.

Sarcoma 180 [3] = assay: Antitumor activity test using Sarcoma 180 in ddY mice; type: in vivo; settings: intraperitoneal, once a day for 10 days, fifth week
Procedure: as §1, §2, §3
(7) An antitumor activity test using Sarcoma 180 in ddY mice
Six million Sarcoma 180 cells were transplanted into the subcutaneous portion of the right inguinal part of ddY mice having a body weight of about 23 g, and then, the same operation as in (1) above was performed.

Meth-A = assay: Antitumor activity test using Meth-A in Balb/c mice; type: in vivo; settings: intraperitoneal, once a day for 10 days, fifth week
Procedure: (§4) Starting 24 hours after the transplantation, the glucanpolyol of this invention was intraperitoneally administered once a day for 10 days. In the fifth week, the tumor was enucleated and its weight was compared with that in non-treated groups. The tumor inhibition ratio was calculated, and the number of tumors which completely regressed was observed.
as §2, §3
(3) An antitumor activity test using Meth-A in Balb/c mice

Sarcoma 180 [4] = assay: Antitumor activity test using Sarcoma 180 in C57 BL/6 mice; type: in vivo; settings: intraperitoneal, once a day for 10 days, fifth week
Procedure: as §1, §2, §3
(6) An antitumor activity test using Sarcoma 180 in C57 BL/6 mice
Six million Sarcoma 180 cells were transplanted into the subcutaneous portion of the right inguinal part of the C57 BL/6 mice having a body weight of about 20 g, and then the same operation as in (1) above was performed.

Sarcoma 180 [5] = assay: Antitumor activity test using Sarcoma 180 in C3H/He mice; type: in vivo; settings: intraperitoneal, once a day for 10 days, fifth week
Procedure: as §4, §2, §3
(4) An antitumor activity test using Sarcoma 180 in C3H/He mice

Sarcoma 180 [6] = assay: Antitumor activity test using Sarcoma 180 in Balb/c mice; type: in vivo; settings: intraperitoneal, once a day for 10 days, fifth week
Procedure: as §1, §2, §3
(5) An antitumor activity test using Sarcoma 180 in Balb/c mice
Six million Sarcoma 180 cells were transplanted into the subcutaneous portion of the right inguinal part of the Balb/c mice having a body weight of about 23 g, and then, the same operation as in (1 ) above was performed.

Ehrlich Carcinoma = assay: Antitumor activity test using Ehrlich Carcinoma in ICR-JCL mice; type: in vivo; settings: intraperitoneal, once a day for 10 days, fifth week
Procedure: as §4, §2, §3
(2) An antitumor activity test using Ehrlich Carcinoma in ICR-JCL mice

Sarcoma 180 [7] = assay: Antitumor activity test using Sarcoma 180 in ICR-JCL mice; type: in vivo; settings: intraperitoneal, once a day for 10 days, fifth week
Procedure: (1) An antitumor activity test using Sarcoma 180 in ICR-JCL mice
as §4, §2, §3

ICR-JCL mice = assay: Toxicity (LD50) on ICR-JCL mice; type: in vivo
Source text: The toxicity of the β-1,3-glucanpolyol of this invention is very low, and the LD50 values of the products obtained in Examples 1, 4 and 5, for example, on ICR-JCL mice are as shown in Table 10.

Intrinsic viscosity [.eta.] [1]: 8.55 dL/g
Substance: β-1,3-glucanpolyol [Example 7]

Substance: β-1,3-glucanpolyol [Example 4]
Average weight of tumor (CCM-adenocarcinoma; 1 mg/kg/day): 0 g | Complete regression (CCM-adenocarcinoma; 1 mg/kg/day): 10/10 | Tumor inhibition ratio (CCM-adenocarcinoma; 1 mg/kg/day): 100% | Average weight of tumor (CCM-adenocarcinoma; 5 mg/kg/day): 0.23 g | Complete regression (CCM-adenocarcinoma; 5 mg/kg/day): 8/10 | Tumor inhibition ratio (CCM-adenocarcinoma; 5 mg/kg/day): 98.1% | Average weight of tumor ([2]; 1 mg/kg/day): 0.67 g | Complete regression ([2]; 1 mg/kg/day): 8/10 | Tumor inhibition ratio ([2]; 1 mg/kg/day): 88.3% | Average weight of tumor ([2]; 5 mg/kg/day): 0.83 g | Complete regression ([2]; 5 mg/kg/day): 6/10 | Tumor inhibition ratio ([2]; 5 mg/kg/day): 85.6% | Average weight of tumor (Sarcoma 180 [3]; 1 mg/kg/day): 0.25 g | Complete regression (Sarcoma 180 [3]; 1 mg/kg/day): 8/10 | Tumor inhibition ratio (Sarcoma 180 [3]; 1 mg/kg/day): 97.7% | Average weight of tumor (Sarcoma 180 [3]; 5 mg/kg/day): 0.54 g | Complete regression (Sarcoma 180 [3]; 5 mg/kg/day): 8/10 | Tumor inhibition ratio (Sarcoma 180 [3]; 5 mg/kg/day): 95.2% | Average weight of tumor (Meth-A; 5 mg/kg/day): 7.99 g | Complete regression (Meth-A; 5 mg/kg/day): 0/10 | Tumor inhibition ratio (Meth-A; 5 mg/kg/day): 40.2% | Average weight of tumor (Meth-A; 20 mg/kg/day): 9.33 g | Complete regression (Meth-A; 20 mg/kg/day): 0/10 | Tumor inhibition ratio (Meth-A; 20 mg/kg/day): 30.2% | Average weight of tumor (Sarcoma 180 [4]; 1 mg/kg/day): 0.13 g | Complete regression (Sarcoma 180 [4]; 1 mg/kg/day): 9/10 | Tumor inhibition ratio (Sarcoma 180 [4]; 1 mg/kg/day): 96.4% | Average weight of tumor (Sarcoma 180 [4]; 5 mg/kg/day): 0.12 g | Complete regression (Sarcoma 180 [4]; 5 mg/kg/day): 9/10 | Tumor inhibition ratio (Sarcoma 180 [4]; 5 mg/kg/day): 96.6% | Average weight of tumor (Sarcoma 180 [5]; 1 mg/kg/day): 5.62 g | Complete regression (Sarcoma 180 [5]; 1 mg/kg/day): 0/10 | Tumor inhibition ratio (Sarcoma 180 [5]; 1 mg/kg/day): 56.5% | Average weight of tumor (Sarcoma 180 [5]; 5 mg/kg/day): 4.93 g | Complete regression (Sarcoma 180 [5]; 5 mg/kg/day): 1/10 | Tumor inhibition ratio (Sarcoma 180 [5]; 5 mg/kg/day): 61.8% | Average weight of tumor (Sarcoma 180 [6]; 1 mg/kg/day): 0 g | Complete regression (Sarcoma 180 [6]; 1 mg/kg/day): 10/10 | Tumor inhibition ratio (Sarcoma 180 [6]; 1 mg/kg/day): 100% | Average weight of tumor (Sarcoma 180 [6]; 5 mg/kg/day): 0 g | Complete regression (Sarcoma 180 [6]; 5 mg/kg/day): 10/10 | Tumor inhibition ratio (Sarcoma 180 [6]; 5 mg/kg/day): 100% | Intrinsic viscosity [.eta.] [1]: 3.27 dL/g | Average weight of tumor (Ehrlich Carcinoma; 1 mg/kg/day): 1.48 g | Complete regression (Ehrlich Carcinoma; 1 mg/kg/day): 6/10 | Tumor inhibition ratio (Ehrlich Carcinoma; 1 mg/kg/day): 90.1% | Average weight of tumor (Ehrlich Carcinoma; 5 mg/kg/day): 0.97 g | Complete regression (Ehrlich Carcinoma; 5 mg/kg/day): 6/10 | Tumor inhibition ratio (Ehrlich Carcinoma; 5 mg/kg/day): 93.5% | Average weight of tumor (Sarcoma 180 [7]; 1 mg/kg/day): 0.92 g | Complete regression (Sarcoma 180 [7]; 1 mg/kg/day): 6/10 | Tumor inhibition ratio (Sarcoma 180 [7]; 1 mg/kg/day): 91.6% | Average weight of tumor (Sarcoma 180 [7]; 5 mg/kg/day): 0.41 g | Complete regression (Sarcoma 180 [7]; 5 mg/kg/day): 8/10 | Tumor inhibition ratio (Sarcoma 180 [7]; 5 mg/kg/day): 96.3% | Toxicity after ultrasonic treatment (ICR-JCL mice; effect of ultrasonic treatment): lower toxicity | LD50 Intraperitoneal administration (ICR-JCL mice; intraperitoneal, ICR-JCL mice): above 5 g/kg | LD50 Intravenous administration (ICR-JCL mice; intravenous, ICR-JCL mice): 1500 mg/kg | LD50 Oral administration (ICR-JCL mice; oral, ICR-JCL mice): above 20 g/kg
